Data: US8912179B2, “Heterocyclyl compounds as histamine H3 receptor ligands” (Suven Life Sciences Limited, priority 2010, dated 2014)

Key:
Male Wister rats = assay: Object recognition task model; type: in vivo, rat; conditions: for Exploration time mean ± S.E.M, Familiar object / Exploration time mean ± S.E.M, Novel object: choice trial T2, 24 hours after T1
Experimental: The cognition enhancing properties of compounds of this invention were estimated by using this model.
Male Wister rats (230-280 grams) obtained from N. I. N. (National Institute of Nutrition, Hyderabad, India) was used as experimental animals. Four animals were housed in each cage. Animals were kept on 20% food deprivation before one day and given water ad libitum throughout the experiment and maintained on a 12 hours light/dark cycle. Also the rats were habituated to individual arenas for 1 hour in the absence of any objects.
One group of 12 rats received vehicle (1 mL/Kg) orally and another set of animals received compound of the formula (I) either orally or i.p., before one hour of the familiar (T1) and choice trial (T2).
The experiment was carried out in a 50×50×50 cm open field made up of acrylic. In the familiarization phase, (T1), the rats were placed individually in the open field for 3 minutes, in which two identical objects (plastic bottles, 12.5 cm height×5.5 cm diameter) covered in yellow masking tape alone (a1 and a2) were positioned in two adjacent corners, 10 cms from the walls. After 24 hours of the (T1) trial for long-term memory test, the same rats were placed in the same arena as they were placed in T1 trial. Choice phase (T2) rats were allowed to explore the open field for 3 minutes in presence of one familiar object (a3) and one novel object (b) (Amber color glass bottle, 12 cm high and 5 cm in diameter). Familiar objects presented similar textures, colors and sizes. During the T1 and T2 trial, explorations of each object (defined as sniffing, licking, chewing or having moving vibrissae whilst directing the nose towards the object at a distance of less than 1 cm) were recorded separately by stopwatch. Sitting on an object was not regarded as exploratory activity, however, it was rarely observed. • T1 is the total time spent exploring the familiar objects (a1+a2). • T2 is the total time spent exploring the familiar object and novel object (a3+b).
The object recognition test was performed as described by Ennaceur, A., Delacour, J., 1988, A new one-trial test for neurobiological studies of memory in rats—Behavioural data, Behav. Brain Res., 31, 47-59.

[1] = Rodent brain penetration study; type: in vivo, Male Wister rats; conditions: brain / whole blood; Wistar male rat; one value per compound, table lists intravenous 1 mg/kg and per oral 3 mg/kg, water; read-out: Brain Penetration Ratio (Cb/Cp)
Experimental: Male Wister rats (230-280 grams) obtained from NIN (National Institute of Nutrition, Hyderabad, India) was used as experimental animals. Three animals were housed in each cage. Animals were given water and food ad libitum throughout the experiment, and maintained on a 12 hours light/dark cycle.
New chemical entity (NCE) was dissolved in suitable vehicle and administered orally (3 or 10 mg/kg). Around Tmax (i.e, 0.5 hour, 1.0 hour and 2.0 hours) animals were sacrificed. Blood and brain tissue were collected and brain was homogenized to yield 20% w/v. Blood was stored at 2-8° C. and brain homogenate was frozen at −20° C. until analysis. The concentrations of NCE in blood and brain were quantified using LC-MS/MS method.
The NCE was quantified in blood and brain homogenate by partially validated LC-MS/MS method using acetonitrile precipitation technique. NCE compounds were quantified in the calibration range of 1-500 ng/mL in blood and brain homogenate. Study samples were analyzed using calibration samples in the batch and quality control samples spread across the batch. Extents of brain-blood ratio were calculated (Cb/Cp).

rats [2] = assay: Morris water maze, reversal of scopolamine induced amnesia; type: in vivo, rat; conditions: p.o., dose giving reversal
Experimental: The cognition-enhancing properties of compounds of this invention were estimated by using this model.
The water maze apparatus consisted of a circular pool (1.8 m diameter, 0.6 m high) constructed in black Perspex (TSE systems, Germany) filled with water (24±2° C.) and positioned underneath a wide-angled video camera to track animal. The 10 cm^2 perspex platform, lying 1 cm below the water surface, was placed in the centre of one of the four imaginary quadrants, which remained constant for all rats. The black Perspex used in the construction of the maze and platform offered no intramaze cues to guide escape behavior. By contrast, the training room offered several strong extramaze visual cues to aid the formation of the spatial map necessary for escape learning. An automated tracking system, [Videomot 2 (5.51), TSE systems, Germany] was employed. This program analyzes video images acquired via a digital camera and an image acquisition boards that determined path length, swim speed and the number of entries and duration of swim time spent in each quadrant of the water maze.

[3] = Rodent pharmacokinetic study; type: in vivo, Male Wistar rats; conditions: whole blood, Wistar male rat; for AUC(0-t) / Cmax / Tmax / half-life: water, blood; for bioavailability: per oral 3 mg/kg vs intravenous 1 mg/kg
Experimental: Male Wistar rats (230-280 grams) obtained from NIN (National Institute of Nutrition, Hyderabad, India) were used as an experimental animal. Three animals were housed in each cage. Animals were kept fasted over night and maintained on a 12 hours light/dark cycle. Three rats were dosed New chemical entity (NCE) orally (3 or 10 mg/kg) and intravenously (1 or 5 mg/kg) on day 0 and day 2.
At each time point blood was collected by jugular vein. Blood was stored at 2-8° C. until analysis. The concentrations of the NCE compound in blood were determined using LC-MS/MS method. Schedule time points: Pre dose 0.08, 0.25, 0.5, 1, 2, 4, 6, 8 and 24 hours after dosing (n=3). The NCE compounds were quantified in blood by partially validated LC-MS/MS method using acetonitrile precipitation technique. NCE compounds were quantified in the calibration range of 1-2000 ng/mL in blood. Study samples were analyzed using calibration samples in the batch and quality control samples spread across the batch.
Pharmacokinetic parameters were calculated by non-compartmental model using software WinNonlin version 5.0.1.

Histamine H3 receptor = Histamine H3 receptor (UniProt Q9Y5N1); assay: Binding assay for human or rat histamine H3 receptor ([3H] R-α-methylhistamine); conditions: [3H] R-α-methylhistamine 3.0 nM; rat brain frontal cortex or recombinant human receptor in CHO cells (not specified which)
Experimental: Compounds can be evaluated according to the following procedures.
• Receptor source: Rat brain frontal cortex or recombinant human cDNA expressed in CHO cells • Radioligand: [^3H] R-α-methylhistamine • Final ligand concentration—[3.0 nM] • Non-specific determinant: R-α-methylhistamine (100 uM) • Reference compound: R-α-methylhistamine • Positive control: R-α-methylhistamine Incubation Conditions:
Increasing concentrations of test compounds or standard were incubated with membrane receptors and radioligand in 5 mM MgCl2 and 50 mM TRIS-HCl (pH 7.4) for 60 minutes at room temperature. The reaction was terminated by rapid vacuum filtration onto the glass fiber filters. Radioactivity trapped onto the filters was determined and compared to the control values in order to ascertain any interactions of the test compound(s) with either cloned human or rat receptor binding site.

rats [4] = assay: Inhibition of food intake; type: in vivo, rat; conditions: p.o., rats fasted 18 hours
Experimental: The anti-obesity properties of compounds of this invention were estimated using this model
The experiment consisted of 6 days. The rats were adapted to the 18 hours fasting and 6 hours feeding pattern. The animals were housed in a group of three in the cages provided with the fasting grills and was fasted for 18 hours. After 18 hours fasting the rats were separated and placed individually in the cage. Weighed amount of feed was provided to rats for 6 hours and the feed intake at 1 hour, 2 hours, 4 hours and 6 hours was measured
Again the rats were regrouped and fasted for 18 hours. The above procedure was followed for 5 days. The average cumulative food intake by the rats on the last 3 days was calculated. Animals were randomized on the basis of their previous three days food intake. On the day of experiment the rats were orally treated test compounds or vehicle. After 60 minutes, the feed was provided to the rats and the food intake at 1 hour, 2 hours, 4 hours and 6 hours was measured. The food intake by the rats treated with test compound was compared with the vehicle treated group by using Unpaired Student's t test.

Row | SMILES | Kp [1] | AUC(0-t) ([3]; intravenous, 1 mg/kg) [ng·h/mL] | Cmax ([3]; intravenous, 1 mg/kg) [ng/mL] | Tmax ([3]; intravenous, 1 mg/kg) [min] | half-life ([3]; intravenous, 1 mg/kg) [min] | bioavailability [3] [%] | AUC(0-t) ([3]; per oral, 3 mg/kg) [ng·h/mL] | Cmax ([3]; per oral, 3 mg/kg) [ng/mL] | Tmax ([3]; per oral, 3 mg/kg) [min] | half-life ([3]; per oral, 3 mg/kg) [min] | Ki (Histamine H3 receptor) [nM] | Inference (Male Wister rats; 3 mg/kg p.o.) | Exploration time mean ± S.E.M, Familiar object (Male Wister rats; 3 mg/kg p.o.) [s] | Exploration time mean ± S.E.M, Novel object (Male Wister rats; 3 mg/kg p.o.) [s] | Reversal of Scopolamine Induced amnesia (rats [2]) | other results
1 | O=C(C1CC1)N1CCc2nc(OC3CCN(C4CCC4)CC3)sc2C1.O=C(O)C(O)C(O)C(=O)O [Example 4, [2-(1-Cyclobutyl-piperidin-4-yloxy)-6,7-dihydro-4H-thiazolo[5,4-c]pyridin-5-yl]-cyclopropyl-methanone tartrate] | 2.17 ± 0.17 | 348 ± 7 | 320 ± 62 | 4.8 | 75 ± 6.6 | 39 ± 8 | 407 ± 89 | 199 ± 48 | 40.2 ± 17.4 | 100 ± 12.6 | 7.2 |  |  |  | ≦10 mg/kg, p.o. | Inference (Male Wister rats; 10 mg/kg p.o.): Active; Exploration time mean ± S.E.M, Familiar object (Male Wister rats; 10 mg/kg p.o.): 7.8 ± 1.36 s; Exploration time mean ± S.E.M, Novel object (Male Wister rats; 10 mg/kg p.o.): 20.32 ± 2.22 s; Inhibition of food intake (rats [4]): 20 mg/kg, p.o.
2 | CC(C)C(=O)N1CCc2nc(OC3CCN(C4CCC4)CC3)sc2C1.O=C(O)C(O)C(O)C(=O)O [Example 22, 1-[2-(1-Cyclobutyl-piperidin-4-yloxy)-6,7-dihydro-4H-thiazolo[5,4-c]pyridin-5-yl]-2-methyl-propan-1-one tartrate] | 2.1 ± 0.13 | 110 ± 15 | 205 ± 47 | 4.8 | 30 ± 3 | 65 ± 24 | 206 ± 56 | 189 ± 56 | 25.2 ± 8.4 | 32.4 ± 6.6 | 9.5 |  |  |  |  | 

The next lines start with results.

Row | Kp [1] | AUC(0-t) ([3]; intravenous, 1 mg/kg) [ng·h/mL] | Cmax ([3]; intravenous, 1 mg/kg) [ng/mL] | Tmax ([3]; intravenous, 1 mg/kg) [min] | half-life ([3]; intravenous, 1 mg/kg) [min] | bioavailability [3] [%] | AUC(0-t) ([3]; per oral, 3 mg/kg) [ng·h/mL] | Cmax ([3]; per oral, 3 mg/kg) [ng/mL] | Tmax ([3]; per oral, 3 mg/kg) [min] | half-life ([3]; per oral, 3 mg/kg) [min] | Ki (Histamine H3 receptor) [nM] | SMILES | Inference (Male Wister rats; 3 mg/kg p.o.) | Exploration time mean ± S.E.M, Familiar object (Male Wister rats; 3 mg/kg p.o.) [s] | Exploration time mean ± S.E.M, Novel object (Male Wister rats; 3 mg/kg p.o.) [s] | Reversal of Scopolamine Induced amnesia (rats [2]) | other results
3 | 1.97 ± 0.24 | 356 ± 61 | 436 ± 118 | 4.8 | 58.8 ± 7.8 | 49 ± 5 | 524 ± 51 | 329 ± 23 | 25.2 ± 8.4 | 57 ± 4.2 | 3.83 | CCC(=O)N1CCc2nc(OC3CCN(C4CCC4)CC3)sc2C1.O=C(O)C(O)C(O)C(=O)O [Example 1, 1-[2-(1-Cyclobutyl-piperidin-4-yloxy)-6,7-dihydro-4H-thiazolo[5,4-c]pyridin-5-yl]-propan-1-one tartrate] | Active | 7.8 ± 1.80 | 23.95 ± 3.15 | ≦10 mg/kg, p.o. | 
4 |  | 282 ± 23 | 370 ± 25 | 4.8 | 40.2 ± 3.6 | 82 ± 38 | 701 ± 328 | 286 ± 40 | 49.8 ± 17.4 | 57 ± 16.8 | 39 | O=C(C1CCOCC1)N1CCc2nc(OC3CCN(C4CCC4)CC3)sc2C1 [Example 28, [2-(1-Cyclobutyl-piperidin-4-yloxy)-6,7-dihydro-4H-thiazolo[5,4-c]pyridin-5-yl]-(tetrahydro-pyran-4-yl)-methanone] |  |  |  | ≧10 mg/kg, p.o. | Inference (Male Wister rats; 0.3 mg/kg p.o.): Active; Exploration time mean ± S.E.M, Familiar object (Male Wister rats; 0.3 mg/kg p.o.): 6.12 ± 1.22 s; Exploration time mean ± S.E.M, Novel object (Male Wister rats; 0.3 mg/kg p.o.): 11.44 ± 1.69 s
5 | 3.08 ± 0.45 | 155 ± 38 | 287 ± 58 | 4.8 | 25.8 ± 6 | 25 ± 1 | 117 ± 34 | 101 ± 37 | 25.2 ± 8.4 | 34.2 ± 6 | 3.3 | O=C(C1CCC1)N1CCc2nc(OC3CCN(C4CCC4)CC3)sc2C1.O=C(O)C(O)C(O)C(=O)O [Example 5, Cyclobutyl-[2-(1-cyclobutyl-piperidin-4-yloxy)-6,7-dihydro-4H-thiazolo[5,4-c]pyridin-5-yl]-methanone tartrate] | Active | 7.15 ± 0.91 | 11.44 ± 1.58 | ≦3 mg/kg, p.o. | 
